This is an account of results in article PMC5218480 (PLoS ONE, 2017).

For the experiment, the system named is MV-4-11 cells. Description: Gene expression microarray analysis (Affymetrix PrimeView) and GSEA. Type of experiment: cell-based, human. Set-up: RFU PODN (11730768_x_at) / Fold change /veh PODN (11730768_x_at) / RFU LINC00158 (11744669_a_at) / Fold change /veh LINC00158 (11744669_a_at) / RFU DUSP10 (11751237_a_at) / Fold change /veh DUSP10 (11751237_a_at) / RFU ID3 (11757404_x_at) / Fold change /veh ID3 (11757404_x_at) / RFU PLEKHG5 (11737974_s_at) / Fold change /veh PLEKHG5 (11737974_s_at) / RFU LRRC4B (11730491_at) / Fold change /veh LRRC4B (11730491_at) / RFU GIMAP4 (11747438_a_at) / Fold change /veh GIMAP4 (11747438_a_at) / RFU KRT8 (11758183_x_at) / Fold change /veh KRT8 (11758183_x_at) / RFU CNN1 (11734310_a_at) / Fold change /veh CNN1 (11734310_a_at) / RFU VPS37D (11726825_at) / Fold change /veh VPS37D (11726825_at) / RFU C10orf10 (11716522_x_at) / Fold change /veh C10orf10 (11716522_x_at) / RFU KIR2DL2 /// KIR2DL4 /// KIR2DL5A /// KIR2DL5B /// KIR2DS1 /// KIR2DS2 /// KIR2DS3 /// KIR2DS4 /// KIR3DL3 /// KIR3DL3 /// KIR3DS1 (11738374_at) / Fold change /veh KIR2DL2 /// KIR2DL4 /// KIR2DL5A /// KIR2DL5B /// KIR2DS1 /// KIR2DS2 /// KIR2DS3 /// KIR2DS4 /// KIR3DL3 /// KIR3DL3 /// KIR3DS1 (11738374_at) / RFU C1QL1 (11718748_at) / Fold change /veh C1QL1 (11718748_at) / RFU TMPRSS4 (11747572_a_at) / Fold change /veh TMPRSS4 (11747572_a_at) / RFU HAMP (11756126_x_at) / Fold change /veh HAMP (11756126_x_at) / RFU RNFT2 (11725882_a_at) / Fold change /veh RNFT2 (11725882_a_at) / RFU NR4A2 (11747474_a_at) / Fold change /veh NR4A2 (11747474_a_at) / RFU ABCC12 (11746883_a_at) / Fold change /veh ABCC12 (11746883_a_at) / RFU TMEM136 (11760407_x_at) / Fold change /veh TMEM136 (11760407_x_at) / RFU CLDN22 /// WWC2 (11732394_at) / Fold change /veh CLDN22 /// WWC2 (11732394_at) / RFU HLA-DPB1 (11760878_x_at) / Fold change /veh HLA-DPB1 (11760878_x_at) / RFU SPINT1 (11716480_a_at) / Fold change /veh SPINT1 (11716480_a_at) / RFU GAP43 (11754022_s_at) / Fold change /veh GAP43 (11754022_s_at) / RFU A4GNT (11735810_at) / Fold change /veh A4GNT (11735810_at) / RFU PRB3 (11715151_x_at) / Fold change /veh PRB3 (11715151_x_at) / RFU TUBB4B (11761932_at) / Fold change /veh TUBB4B (11761932_at) / RFU CAPN14 (11732068_a_at) / Fold change /veh CAPN14 (11732068_a_at) / RFU TMCC2 (11721928_a_at) / Fold change /veh TMCC2 (11721928_a_at) / RFU IRGQ (11745062_a_at) / Fold change /veh IRGQ (11745062_a_at) / RFU FAM174B (11720279_a_at) / Fold change /veh FAM174B (11720279_a_at) / RFU TMPRSS4 (11748680_a_at) / Fold change /veh TMPRSS4 (11748680_a_at) / RFU FAM212B (11763350_a_at) / Fold change /veh FAM212B (11763350_a_at) / RFU PLEKHG5 (11743358_a_at) / Fold change /veh PLEKHG5 (11743358_a_at) / RFU ZSCAN30 (11745921_a_at) / Fold change /veh ZSCAN30 (11745921_a_at) / RFU CMKLR1 (11741424_a_at) / Fold change /veh CMKLR1 (11741424_a_at) / RFU LOC101060620 /// MAPK8IP1 (11723275_at) / Fold change /veh LOC101060620 /// MAPK8IP1 (11723275_at) / RFU SPTSSB (11747773_x_at) / Fold change /veh SPTSSB (11747773_x_at) / RFU PRSS12 (11739890_at) / Fold change /veh PRSS12 (11739890_at) / RFU BIN1 (11741810_x_at) / Fold change /veh BIN1 (11741810_x_at) / RFU WNT11 (11732464_a_at) / Fold change /veh WNT11 (11732464_a_at) / RFU C10orf10 (11716521_a_at) / Fold change /veh C10orf10 (11716521_a_at) / RFU C5orf56 (11738089_at) / Fold change /veh C5orf56 (11738089_at) / RFU CYB561 (11721691_x_at) / Fold change /veh CYB561 (11721691_x_at) / RFU ANKRD19P (11752326_a_at) / Fold change /veh ANKRD19P (11752326_a_at) / RFU OR2T12 /// OR2T33 /// OR2T8 (11738714_s_at) / Fold change /veh OR2T12 /// OR2T33 /// OR2T8 (11738714_s_at) / RFU VCAN (11748164_a_at) / Fold change /veh VCAN (11748164_a_at) / RFU JSRP1 (11732532_at) / Fold change /veh JSRP1 (11732532_at) / RFU KRTAP10-11 (11738290_x_at) / Fold change /veh KRTAP10-11 (11738290_x_at) / RFU MYO3A (11730013_a_at) / Fold change /veh MYO3A (11730013_a_at) / RFU EBF3 (11725865_a_at) / Fold change /veh EBF3 (11725865_a_at) / RFU CAMK2N1 (11719241_x_at) / Fold change /veh CAMK2N1 (11719241_x_at) / RFU C5orf56 (11738088_a_at) / Fold change /veh C5orf56 (11738088_a_at) / RFU OLFML3 (11715873_a_at) / Fold change /veh OLFML3 (11715873_a_at) / RFU LOC100653217 /// NTM (11731650_a_at) / Fold change /veh LOC100653217 /// NTM (11731650_a_at) / RFU MAPK11 (11762145_a_at) / Fold change /veh MAPK11 (11762145_a_at) / RFU FIZ1 (11724087_x_at) / Fold change /veh FIZ1 (11724087_x_at) / RFU OASL (11726364_x_at) / Fold change /veh OASL (11726364_x_at) / RFU SOX15 (11748057_x_at) / Fold change /veh SOX15 (11748057_x_at) / RFU CD79A (11719716_a_at) / Fold change /veh CD79A (11719716_a_at) / RFU HIST1H1D (11736915_at) / Fold change /veh HIST1H1D (11736915_at) / RFU CASKIN2 (11723855_a_at) / Fold change /veh CASKIN2 (11723855_a_at) / RFU LOC730098 (11760151_x_at) / Fold change /veh LOC730098 (11760151_x_at) / RFU OR4N2 (11742367_at) / Fold change /veh OR4N2 (11742367_at) / RFU PRRT2 (11749266_a_at) / Fold change /veh PRRT2 (11749266_a_at) / RFU SNX32 (11753110_a_at) / Fold change /veh SNX32 (11753110_a_at) / RFU CDHR5 (11726645_a_at) / Fold change /veh CDHR5 (11726645_a_at) / RFU RCAN1 (11760418_a_at) / Fold change /veh RCAN1 (11760418_a_at) / RFU FAM167A (11723789_a_at) / Fold change /veh FAM167A (11723789_a_at) / RFU FAM26E (11764081_at) / Fold change /veh FAM26E (11764081_at) / RFU ISYNA1 (11749810_s_at) / Fold change /veh ISYNA1 (11749810_s_at) / RFU ACY1 (11761880_at) / Fold change /veh ACY1 (11761880_at) / RFU 11764098_at / Fold change /veh 11764098_at / RFU SAMD14 (11745864_x_at) / Fold change /veh SAMD14 (11745864_x_at) / RFU NPB (11741838_a_at) / Fold change /veh NPB (11741838_a_at) / RFU TMPRSS6 (11731388_a_at) / Fold change /veh TMPRSS6 (11731388_a_at) / RFU KRTAP10-2 (11738614_at) / Fold change /veh KRTAP10-2 (11738614_at) / RFU ARHGAP8 /// PRR5-ARHGAP8 (11727945_x_at) / Fold change /veh ARHGAP8 /// PRR5-ARHGAP8 (11727945_x_at) / RFU KRTAP5-7 /// NADSYN1 (11734609_at) / Fold change /veh KRTAP5-7 /// NADSYN1 (11734609_at) / RFU RASL12 (11751679_a_at) / Fold change /veh RASL12 (11751679_a_at) / RFU CDKN2B (11736163_a_at) / Fold change /veh CDKN2B (11736163_a_at) / RFU PRF1 (11729649_at) / Fold change /veh PRF1 (11729649_at) / RFU, ZNF638 /// ZNF638-IT1 / Fold change vs veh, ZNF638 /// ZNF638-IT1 / RFU, PANK3 / Fold change vs veh, PANK3 / RFU, SH3YL1 / Fold change vs veh, SH3YL1 / RFU, ZEB2 / Fold change vs veh, ZEB2 / RFU, NRIP1 / Fold change vs veh, NRIP1 / RFU, PTTG1IP / Fold change vs veh, PTTG1IP / RFU, CAPN2 / Fold change vs veh, CAPN2 / RFU, MED14 / Fold change vs veh, MED14 / RFU, SNORA58 / Fold change vs veh, SNORA58 / RFU, C1orf63 / Fold change vs veh, C1orf63 / RFU, LRRFIP1 / Fold change vs veh, LRRFIP1 / RFU, NDUFAF7 / Fold change vs veh, NDUFAF7 / RFU, SLC12A2 / Fold change vs veh, SLC12A2 / RFU, IBTK / Fold change vs veh, IBTK / RFU, ESF1 / Fold change vs veh, ESF1 / Fold change vs veh, TMEM50B / RFU, TAOK1 / Fold change vs veh, TAOK1 / RFU, ACBD3 / Fold change vs veh, ACBD3 / RFU, TMA16 / Fold change vs veh, TMA16 / RFU, RWDD3 / Fold change vs veh, RWDD3 / RFU, BCAT1 / Fold change vs veh, BCAT1 / RFU, EDEM3 / Fold change vs veh, EDEM3 / RFU, TMEM33 / Fold change vs veh, TMEM33 / RFU, WDR75 / Fold change vs veh, WDR75 / RFU, AHCTF1 / Fold change vs veh, AHCTF1 / RFU, TFRC / Fold change vs veh, TFRC / RFU, ZDHHC17 / Fold change vs veh, ZDHHC17 / RFU, NOM1 / Fold change vs veh, NOM1 / RFU, ARL8B / Fold change vs veh, ARL8B / RFU, ZBTB11 / Fold change vs veh, ZBTB11 / RFU, TAMM41 / Fold change vs veh, TAMM41 / RFU, KIAA1704 /// LOC100996395 / Fold change vs veh, KIAA1704 /// LOC100996395 / RFU, ING1 / Fold change vs veh, ING1 / RFU, TRMT61B / Fold change vs veh, TRMT61B / RFU, FUBP3 / Fold change vs veh, FUBP3 / RFU, TP53 / Fold change vs veh, TP53 / RFU, TNKS2 / Fold change vs veh, TNKS2 / RFU, ZFP14 / Fold change vs veh, ZFP14 / RFU, ACTR2 / Fold change vs veh, ACTR2 / RFU, PPP3R1 / Fold change vs veh, PPP3R1 / RFU, PIK3R1 / Fold change vs veh, PIK3R1 / RFU, HNRNPA1 / Fold change vs veh, HNRNPA1 / RFU, RNF170 / Fold change vs veh, RNF170 / RFU, ZNF28 / Fold change vs veh, ZNF28 / RFU, RNGTT / Fold change vs veh, RNGTT / RFU, OGT / Fold change vs veh, OGT / RFU, BRD1 / Fold change vs veh, BRD1 / RFU, MARS / Fold change vs veh, MARS / RFU, ZNF655 / Fold change vs veh, ZNF655 / RFU, FAHD1 / Fold change vs veh, FAHD1 / RFU, BDP1 / Fold change vs veh, BDP1 / RFU, LRRCC1 / Fold change vs veh, LRRCC1 / RFU, ARID1A / Fold change vs veh, ARID1A / RFU, ZNF146 / Fold change vs veh, ZNF146 / RFU, ZNF330 / Fold change vs veh, ZNF330 / RFU, GPN3 / Fold change vs veh, GPN3 / RFU, C9orf123 / Fold change vs veh, C9orf123 / RFU, N4BP2L2 / Fold change vs veh, N4BP2L2 / RFU, ARFIP1 / Fold change vs veh, ARFIP1 / RFU, FAM179B / Fold change vs veh, FAM179B / RFU, BCL10 / Fold change vs veh, BCL10 / RFU, UHRF1BP1L / Fold change vs veh, UHRF1BP1L / RFU, BET1 / Fold change vs veh, BET1 / RFU, CNOT2 / Fold change vs veh, CNOT2 / RFU, ZNF268 / Fold change vs veh, ZNF268 / Fold change vs veh, ZNF507 / RFU, DGCR2 / Fold change vs veh, DGCR2 / RFU, WDSUB1 / Fold change vs veh, WDSUB1 / Fold change vs veh, HSP90B1 /// MIR3652 / RFU, ADSS / Fold change vs veh, ADSS / RFU, GK / Fold change vs veh, GK / RFU, ZNF148 / Fold change vs veh, ZNF148 / RFU, TAF9 / Fold change vs veh, TAF9 / RFU, SLC1A5 / Fold change vs veh, SLC1A5 / RFU, SLMO2 / Fold change vs veh, SLMO2 / RFU, ABCC4 / Fold change vs veh, ABCC4 / RFU, LOC101060439 /// RAP1B / Fold change vs veh, LOC101060439 /// RAP1B / RFU, RFX7 / Fold change vs veh, RFX7 / RFU, GTPBP10 / Fold change vs veh, GTPBP10 / RFU, CNEP1R1 / Fold change vs veh, CNEP1R1 / RFU, BIVM-ERCC5 /// ERCC5 / Fold change vs veh, BIVM-ERCC5 /// ERCC5 / RFU, ILF3 / Fold change vs veh, ILF3 / RFU 11762660_at / Fold change /veh 11762660_at / RFU VCAN (11757783_s_at) / Fold change /veh VCAN (11757783_s_at) / RFU DDX43 (11728927_at) / Fold change /veh DDX43 (11728927_at) / RFU KRT8 (11758188_x_at) / Fold change /veh KRT8 (11758188_x_at) / RFU NKD1 (11759106_at) / Fold change /veh NKD1 (11759106_at) / RFU SRD5A1 (11742802_a_at) / Fold change /veh SRD5A1 (11742802_a_at) / RFU TPSAB1 /// TPSB2 (11721975_s_at) / Fold change /veh TPSAB1 /// TPSB2 (11721975_s_at) / RFU GSTM3 (11746129_a_at) / Fold change /veh GSTM3 (11746129_a_at) / RFU IL23R (11737362_x_at) / Fold change /veh IL23R (11737362_x_at) / RFU TMEM51 (11727254_a_at) / Fold change /veh TMEM51 (11727254_a_at) / RFU PIWIL2 (11732686_x_at) / Fold change /veh PIWIL2 (11732686_x_at) / RFU ORM1 (11744905_x_at) / Fold change /veh ORM1 (11744905_x_at) / RFU CCDC152 (11743942_at) / Fold change /veh CCDC152 (11743942_at) / RFU ECM1 (11717891_a_at) / Fold change /veh ECM1 (11717891_a_at) / RFU IL23R (11748794_a_at) / Fold change /veh IL23R (11748794_a_at) / RFU TNFAIP8L3 (11732012_x_at) / Fold change /veh TNFAIP8L3 (11732012_x_at) / RFU MBOAT4 (11741988_at) / Fold change /veh MBOAT4 (11741988_at) / RFU 11764193_at / Fold change /veh 11764193_at / RFU TMEM53 (11763286_at) / Fold change /veh TMEM53 (11763286_at) / RFU MAGEB2 (11727129_at) / Fold change /veh MAGEB2 (11727129_at) / RFU TMEM200A (11744735_a_at) / Fold change /veh TMEM200A (11744735_a_at) / RFU CCDC152 (11751479_a_at) / Fold change /veh CCDC152 (11751479_a_at) / RFU FAM211A (11726209_a_at) / Fold change /veh FAM211A (11726209_a_at) / RFU RGS16 (11746705_a_at) / Fold change /veh RGS16 (11746705_a_at) / RFU VCAN (11755009_s_at) / Fold change /veh VCAN (11755009_s_at) / RFU RHOB (11743442_s_at) / Fold change /veh RHOB (11743442_s_at) / RFU RGS16 (11720943_a_at) / Fold change /veh RGS16 (11720943_a_at) / RFU RGS16 (11720944_at) / Fold change /veh RGS16 (11720944_at) / RFU, VPS4B / Fold change vs veh, VPS4B / RFU, CREB1 / Fold change vs veh, CREB1 / RFU, DNAJC13 / Fold change vs veh, DNAJC13 / RFU, GNAQ / Fold change vs veh, GNAQ / RFU, CDK5R1 / Fold change vs veh, CDK5R1 / RFU, ZRANB3 / Fold change vs veh, ZRANB3 / RFU, CUL4A / Fold change vs veh, CUL4A / RFU, CCNY / Fold change vs veh, CCNY / RFU, UFL1 / Fold change vs veh, UFL1 / RFU, COG3 / Fold change vs veh, COG3 / RFU, DIAPH2 / Fold change vs veh, DIAPH2 / RFU, SKA2 / Fold change vs veh, SKA2 / RFU, AFF3 / Fold change vs veh, AFF3 / RFU, LMF1 / Fold change vs veh, LMF1 / RFU, IPO11 / Fold change vs veh, IPO11 / RFU, DFFB / Fold change vs veh, DFFB / RFU, FOXP1 / Fold change vs veh, FOXP1 / RFU, CARD8 / Fold change vs veh, CARD8 / RFU, STRN3 / Fold change vs veh, STRN3 / RFU, ADK / Fold change vs veh, ADK / RFU, RASSF2 / Fold change vs veh, RASSF2 / RFU, WIPF1 / Fold change vs veh, WIPF1 / RFU, LARP1B / Fold change vs veh, LARP1B / RFU, RASA1 / Fold change vs veh, RASA1 / RFU, RB1 / Fold change vs veh, RB1 / RFU, PPFIA1 / Fold change vs veh, PPFIA1 / RFU, MAT2A / Fold change vs veh, MAT2A / RFU, CCT5 / Fold change vs veh, CCT5 / RFU, WDR92 / Fold change vs veh, WDR92 / RFU, CUX1 / Fold change vs veh, CUX1 / RFU, TTC7A / Fold change vs veh, TTC7A / RFU, TMEM135 / Fold change vs veh, TMEM135 / RFU, DEPTOR / Fold change vs veh, DEPTOR / RFU, CPM / Fold change vs veh, CPM / RFU, DNAJB6 / Fold change vs veh, DNAJB6 / RFU, CACNA2D3 / Fold change vs veh, CACNA2D3 / RFU, DTX4 / Fold change vs veh, DTX4 / RFU, TFCP2 / Fold change vs veh, TFCP2 / RFU, GMCL1 /// GMCL1P1 / Fold change vs veh, GMCL1 /// GMCL1P1 / RFU, AEBP2 / Fold change vs veh, AEBP2 / RFU, SNHG1 /// SNORD22 /// SNORD25 /// SNORD26 /// SNORD27 /// SNORD28 /// SNORD29 /// SNORD31 / Fold change vs veh, SNHG1 /// SNORD22 /// SNORD25 /// SNORD26 /// SNORD27 /// SNORD28 /// SNORD29 /// SNORD31 / Fold change (Aza/veh), C12orf56 (ProbeSet 11735607_a_at) / Fold change (ACY-1035/veh), C12orf56 (ProbeSet 11735607_a_at) / Fold change (Aza/veh), FGFR1OP (ProbeSet 11751329_s_at) / Fold change (ACY-1035/veh), FGFR1OP (ProbeSet 11751329_s_at) / Fold change (Aza/veh), VPS36 (ProbeSet 11739960_a_at) / Fold change (ACY-1035/veh), VPS36 (ProbeSet 11739960_a_at) / RFU SYPL1 (11715823_x_at) / Fold change /veh SYPL1 (11715823_x_at) / RFU IGFBP7 (11715501_s_at) / Fold change /veh IGFBP7 (11715501_s_at) / RFU REEP3 (11722064_at) / Fold change /veh REEP3 (11722064_at) / RFU IGLL1 (11728026_x_at) / Fold change /veh IGLL1 (11728026_x_at): dose or concentration left out as unconfirmed. The settings on record: ProbeSet 11747889_x_at; LIST B.

In the case of `Nc1ccc(-c2cccs2)cc1NC(=O)c1ccc2c(c1)cc(C1CC1)n2CCN1CCOCC1` [ACY-1035], the “Fold change vs veh, SH3YL1” value was 0.99.
